These results are taken from patent US9815883B2, “Inhibiting peptides derived from TREM-like transcript 1 (TLT-1) and uses thereof” (Institut National de la Sante et de la Recherche Medicale …, priority 2010, dated 2017).

Entries after “also recorded” stand apart in the source; their conditions may differ.

The test system of one assay is TREM-1 ligand (agonist). The experiment in a line: Immunoblot revealed by mouse anti-TREM-1 mAb (TREM-1 agonist). Format: binding. Particulars: FIG. 1A. The source says:
To determine whether sTLT-1 may specifically bind to the TREM-1 ligand and thus interfere with the TREM-1/TREM-1 ligand interaction, we used a specific TREM-1 agonist known to bind and activate TREM-1, mimicking TREM-1 engagement by its ligand.

For another assay, the system named is neutrophils or monocytes. The experiment in a line: Flow cytometry binding to neutrophils or monocytes. The arrangement: species or system human. Particulars: cells not expressing TREM-1 ligand. How it is done: PMNs were isolated by a Sodium Diatrizoate 13.8%/Dextran 500 8.0% density gradient (polymorphprep, AbCys). Monocytes were isolated by negative cell-sorting of PB-MNCs by Monocytes Isolation Kit II (Miltenyi). Cells were then washed twice with PBS (BioMerieux) and resuspended in complete medium (RPMI 1640 containing 100 UI/mL penicillin, 100 μg/mL streptomycin, […] Amphotericin B and 10% FCS, Eurobio) before stimulation. Purity was assessed by flow cytometry (anti-CD45, -CD14 and -CD66b, Beckman Coulter).
Isolated cells (neutrophils, monocytes or platelets) were blocked for aspecific binding with 10% human Ig (Sigma-Aldrich) for 1 hour on ice. Cells were incubated with recombinant soluble FITC-labelled TLT-1-peptides, FITC-labelled LP17 (or corresponding FITC-labelled scrambled peptides), PE-labelled anti-TREM-1 mAb (R&Dsystems), CD62P-FITC, CD66b-PE, CD45-PE, CD14-FITC (all from Beckman Coulter)

The subject of assay [1] is TREM-1 ligand binding to immobilized TREM-1. In words: Surface plasmon resonance, LPS-stimulated neutrophils supernatants on rsTREM-1-coated sensor chip. The arrangement: species or system human. The following applies: FIG. 1D. As to the method:
(C-D) Surface plasmon resonance assays of LPS-stimulated neutrophils supernatants to a rsTREM-1-coated sensorship in absence (C) or presence (D) of LR17.
Detection of TREM-1-ligand on LPS-stimulated neutrophils supernatants was assessed by binding to a recombinant soluble form of TREM-1 (rsTREM-1) coated on a CM5 sensor chip with the BIAcore X instrument at 25° C. with a flow rate of […]. Binding specificity was verified through competition with the soluble rsTREM-1. Inhibition of TREM-1-ligand binding by LR17 was assessed.

Assay [2] relates to TREM-1. In words: Protein phosphorylation analysis in stimulated neutrophils. Type of assay: cell-based, human. As to the method:
For these experiments, isolated human neutrophils were stimulated with TREM-1 agonist (αTREM-1, 5 μg/mL) with or without LR17 (30 μg/mL) or control LR17-scrambled peptide (30 μg/mL) at indicated times. Data are representative of at least 5 different experiments. Results are mean±SD. p values are ***p<0.001 **p<0.01 *p<0.05 [αTREM-1+LR17] versus [αTREM-1].
(A) Activation of TREM-1 phosphorylation pathway: Western Blot of lysates of neutrophils stimulated for 1, 3, 10, 30 and 60 minutes, analysed with antibody to phospho (p)-p38 and (p)-ERK1/2.
For these experiments, isolated human neutrophils or monocytes were stimulated with LPS (0.1 μg/mL) and TREM-1 agonist (αTREM-1, 5 μg/mL) with or without LR17 (30 μg/mL) or control LR17-scrambled peptide (30 μg/mL), at indicated times. Data are representative of at least 5 different experiments. Results are mean±SD. p values are ***p<0.001 **p<0.01 *p<0.05 [LPS/LR17] versus [LPS] or [LPS+αTREM-1/LR17] versus [LPS+αTREM-1].
(A) Western Blot of lysates of neutrophils stimulated for 1, 3, 10, 30 and 60 minutes, analysed with antibody to phosphor (p)-p38 and (p)-ERK1/2.
Depending on the experiment, cells were stimulated in complete medium supplemented with 100 ng/mL of E. Coli LPS (0111:B4, Sigma-Aldrich), anti-TREM-1 mAb (R&Dsystems) and TLT-1-peptides at different times and concentrations on 96-wells plates (Greiner Bio One). Supernatants were collected for cytokine measurements and cells subjected to flow cytometry or lysed for protein phosphorylation analyses and NFkB activity measurement.
Stimulated PMNs were lysed at 1, 3, 10, 30 and 60 minutes with PhosphoSafe Extraction Reagent (Novagen) and centrifuged for 5 minutes at 16,000 g at 4° C. to collect the supernatant. Protein concentration was determined according to Bradford's method (Pierce). […] Alternatively, PMNs were analyzed after 20 minutes of stimulation for a panel of multiple phosphorylated proteins by immunoblot (Human Phospho-Kinase Array, R&Dsystems). Acquisition and quantitative signals density analyses were done by LAS-4000 imager and Multi-Gauge software (Fujifilm).

The subject of assay [3] is TREM-1. In words: NF-kB activity measurement (nuclear p50/p65 ELISA) in neutrophils. Type of assay: cell-based, human. The following applies: LPS 0.1 μg/mL with or without αTREM-1; peptide 30 μg/mL. As to the method: (C) NF-κB nuclear translocation: ELISA of nuclear p50 and p65 NF-kB subunits of neutrophils treated for 2 hours.
Stimulated cells were collected, nuclear extracts obtained by nuclear extraction kit and NFkB activity measured with human p50/p65 combo transcription factor assay kit (Cayman Chemical) following the manufacturers' instructions.

In another assay the test system is male Balb/c mice. The experiment in a line: LPS-induced endotoxemia in mice. Format: in vivo, mouse. As to the method:
Male Balb/c mice (20-23 g) were randomly grouped (15 mice per group) and treated with an LD50 of LPS. LR17 (100 μg or 250 μg in 0.2 mL NaCl 0.9%), scrambled-LR17 (100 μg in 0.2 mL NaCl 0.9%), or 0.2 mL NaCl 0.9% was administered 60 min before or 60 minutes after LPS. 4-6 animals per group were sacrificed upon penthotal overdose at 2 and 4 hours after LPS injection and blood was sampled through cardiac puncture. Results are mean±SD. p values are *p<0.05, **p<0.01, ***p<0.001 compared with control animals.
After approval by the local ethical committee, male Balb/c mice (4-6 weeks) were randomly grouped and treated with LPS i.p. in combination with LR17 (in 250 μL normal saline) or LR17-scrambled 1 hour before or after LPS challenge. The viability of mice was examined every hour, or animals were killed at regular intervals. Serum samples were collected by cardiac puncture and assayed for cytokines and sTREM-1 levels by ELISA (R&Dsystems).

In the case of “LQEEDAGEYGCMVDGAR (listed as Homo sapiens) [LR17]”, in the assay with TREM-1 ligand (agonist), the “binding to the TREM-1 ligand (TREM-1 agonist, anti-TREM-1 mAb)” value is reported as “able to bind the TREM-1 ligand”. Also, the “binding to neutrophils or monocytes” value in the assay on neutrophils or monocytes is “did not bind”. Further, the “binding of the TREM-1 ligand to immobilized TREM-1” value in assay [1] is “able to block the binding”. The “phosphorylation of p38 and ERK1/2” value in the assay on TREM-1 [2] (LPS 0.1 μg/mL with or without αTREM-1, peptide 30 μg/mL) is listed as “decreased”. Moreover, in the assay on TREM-1 [2] (TREM-1 signalling, data not shown), the “phosphorylation of mTOR, Lyn, AKT, MSK1/2, MEK 1/2, GSK 3α/β, RSK, and p53 (phosphoprotein arrays)” value is recorded as “reduced”. Besides, in the assay with TREM-1 [2] (αTREM-1 5 μg/mL, peptide 30 μg/mL, 1-60 minutes), the “p38 MAPK and ERK 1/2 phosphorylation” value was “partly abrogated”. Moreover, in the assay on TREM-1 [3], the NF-κB translocation entry is “decreased”. Besides, the “serum levels of TNF-α, IL-6, IL-10 and sTREM-1” value in the assay with male Balb/c mice (2 and 4 h, pre- and post-treatment, versus controls) is reported as “reduced”. For the same sequence, the survival curve entry with male Balb/c mice (Log Rank test, p=0.0032) is on record as “confers a survival advantage”. In the assay with male Balb/c mice (injected 1 hour after LPS), the “survival, delayed treatment” value is given as “significant protection”. The “comparison of doses (250 μg vs 100 μg) or injection times” value with male Balb/c mice (mouse, in vivo) is listed as “no differences between doses or injection times; also recorded: did not confer advantage”. Also, the late death result in the assay with male Balb/c mice (over 10 days) is “No late death occurred”. Also, the survival result in the assay on male Balb/c mice (single i.p. dose 60 min before LPS (LD50, 25 mg/kg)) is “All LR17-treated animals survived”.
